Experimental data from patent publication US6630338B2, “Removing deacetylase contaminant from cephalosporin C acylase using cationic surfactant” (Fujisawa Pharmaceutical Co., Ltd., priority 1996, dated 2003).

What was measured:
CC acylase = test: Residual CC acylase activity after addition of surfactant (7-ACA produced from GL7-ACA); assay type: biochemical, Pseudomonas; settings: for residual activity (CC acylase): room temperature 16 hours, relative to activity before addition as 100
Protocol: (§1) Mutant CC acylase N-176 producing E. coli JM 109 (PCCN 176-2) FERM BP-3047 was cultured according to the method disclosed in Example 3 of Japanese Patent Unexamined Publication No. 584078 and the cells were harvested by centrifugation. The obtained cell pellets were disrupted with a homogenizer and soluble protein component was extracted with water, which was followed by centrifugation to remove debris, whereby a crude extract solution was obtained.
(§2) Polyethyleneimine was added to the crude extract solution obtained in the above-mentioned (1) to allow precipitation of the nucleic acid, which was followed by centrifugation to recover supernatant. This supernatant was applied to DEAE column equilibrated with phosphate buffer (pH 7.0), washed with water and eluted with 0.2M-NaCl. […] The activities of CC acylase and deacetylase in each sample before and after the addition of the surfactant were measured and the changes thereof were examined. The enzyme activity was calculated by quantitatively determining 7-ACA and deacetyl 7-ACA produced from GL7-ACA as a substrate.

deacetylase = test: Residual contaminant deacetylase activity after addition of surfactant (deacetyl 7-ACA produced from GL7-ACA); assay type: biochemical; settings: for residual activity (deacetylase): room temperature 16 hours, relative to activity before addition as 100
Protocol: as §1, §2

[1] = surfactant addition concentration 0.1%
[2] = surfactant addition concentration 0.3%
[3] = surfactant addition concentration 0.5%
[4] = surfactant concentration 0.1-0.3%

alkyl glycine [Nissan Anon LG]
residual activity (CC acylase) (CC acylase; [1]): 100 | residual activity (CC acylase) (CC acylase; [2]): 100 | residual activity (CC acylase) (CC acylase; [3]): 95 | residual activity (deacetylase) (deacetylase; [1]): 60 | residual activity (deacetylase) (deacetylase; [2]): 50 | residual activity (deacetylase) (deacetylase; [3]): 30

polyoxyethylenesorbitan monooleate [Nonion TO-221]
residual activity (CC acylase) (CC acylase; [1]): 100 | residual activity (CC acylase) (CC acylase; [2]): 100 | residual activity (CC acylase) (CC acylase; [3]): 100 | residual activity (deacetylase) (deacetylase; [1]): 50 | residual activity (deacetylase) (deacetylase; [2]): 50 | residual activity (deacetylase) (deacetylase; [3]): 45

alkyl(palm)dimethylbenzyl ammonium chloride [Cation F2-50]
residual activity (CC acylase) (CC acylase; [1]): 95 | residual activity (CC acylase) (CC acylase; [2]): 92 | residual activity (CC acylase) (CC acylase; [3]): 70 | CC acylase residual activity (CC acylase; [4]): ≥ 90% | residual activity (deacetylase) (deacetylase; [1]): 5 | residual activity (deacetylase) (deacetylase; [2]): 1 | residual activity (deacetylase) (deacetylase; [3]): 0 | activity of contaminant deacetylase (deacetylase; [4]): not more than 5% | removal of deacetylase (deacetylase; surfactant concentration 0.5%): removed nearly completely

CCCCCCCCCCCC[N+](C)(C)C.[Cl-] [Cation BB, dodecyltrimethyl ammonium chloride]
residual activity (CC acylase) (CC acylase; [1]): 100 | residual activity (CC acylase) (CC acylase; [2]): 100 | residual activity (CC acylase) (CC acylase; [3]): 85 | residual activity (deacetylase) (deacetylase; [1]): 55 | residual activity (deacetylase) (deacetylase; [2]): 45 | residual activity (deacetylase) (deacetylase; [3]): 5

alkyl(palm)trimethyl ammonium chloride [Cation FB]
residual activity (CC acylase) (CC acylase; [1]): 100 | residual activity (CC acylase) (CC acylase; [2]): 100 | residual activity (CC acylase) (CC acylase; [3]): 80 | residual activity (deacetylase) (deacetylase; [1]): 55 | residual activity (deacetylase) (deacetylase; [2]): 40 | residual activity (deacetylase) (deacetylase; [3]): 1

polyoxyethylene octylphenyl ether [Nonion HS-210]
residual activity (CC acylase) (CC acylase; [1]): 100 | residual activity (CC acylase) (CC acylase; [2]): 100 | residual activity (CC acylase) (CC acylase; [3]): 100 | residual activity (deacetylase) (deacetylase; [1]): 50 | residual activity (deacetylase) (deacetylase; [2]): 50 | residual activity (deacetylase) (deacetylase; [3]): 45
